{"source": "patent US20210349099A1", "about": "“CANCER BIOMARKERS AND METHODS OF USE THEREOF” (X4 Pharmaceuticals, Inc., priority 2017, published 2021)", "key": {"in vivo": {"assay": "in vivo", "procedure": "In certain embodiments, the dosage composition may be provided twice a day in divided dosage, approximately 12 hours apart. In other embodiments, the dosage composition may be provided once daily. […] Dosage for oral administration may be from about 100 mg to about 1200 mg once or twice per day."}, "[1]": {"system": "melanoma, renal cell carcinoma, and ovarian cancer", "settings": "murine models; cited from earlier work"}, "melanoma tumor interface": {"system": "melanoma tumor interface", "assay": "Multiplex IHC and HALO count of CD8+ cells at the tumor interface", "assay_type": "in vivo, human", "procedure": "CD8-labeled cells within […] of the inside or outside of the tumor boundary with normal tissue were counted. The number of CD8^+ cells/mm^2 was plotted against distance from the boundary in […] bands."}, "[2]": {"system": "melanoma tumor microenvironment (TME)", "assay": "Multiplex immunofluorescence (mIF) immunophenotyping of melanoma biopsies", "assay_type": "in vivo, human", "settings": "melanoma patient #5", "procedure": "(§1) Formalin-fixed paraffin-embedded (FFPE) tissue sections were baked for 1 hour at 60° C. The slides were dewaxed and stained on a Leica BOND Rx stainer (Leica, Buffalo Grove, Ill.) using Leica Bond reagents for dewaxing (Dewax Solution), antigen retrieval and antibody stripping (Epitope Retrieval Solution 2), and rinsing after each step (Bond Wash Solution). A high stringency wash was performed after the secondary and tertiary applications using high-salt TBST solution (0.05 M Tris, 0.3M NaCl, and 0.1% Tween-20, pH 7.2-7.6). OPAL Polymer HRP Mouse plus Rabbit (PerkinElmer, Hopkington, Mass.) was used for all secondary applications.\nAntigen retrieval and antibody stripping steps were performed at 100° C. with all other steps at ambient temperature. Endogenous peroxidase was blocked with 3% H2O2 for 8 minutes followed by protein blocking with TCT buffer (0.05 M Tris, 0.15 M NaCl, 0.25% Casein, 0.1% Tween 20, pH 7.6+/−0.1) for 30 minutes. The first primary antibody (position 1) was applied for 60 minutes followed by the secondary antibody application for 10 minutes and the application of the tertiary TSA-amplification reagent (PerkinElmer OPAL fluor) for 10 minutes. The primary and secondary antibodies were stripped with retrieval solution for 20 minutes before repeating the process with the second primary antibody (position 2) starting with a new application of 3% H2O2. The process was repeated until all 6 positions were completed; however, there was no stripping step after the 6th position. Slides were removed from the stainer and stained with Spectral DAPI (Perkin Elmer) for 5 minutes, rinsed for 5 minutes, and coverslipped with Prolong Gold Antifade reagent (Invitrogen/Life Technologies, Grand Island, N.Y.).\nSlides were cured for 24 hours at room temperature, then representative images from each slide were acquired on PerkinElmer Vectra 3.0 Automated Imaging System. Images were spectrally unmixed using PerkinElmer inForm software and exported as multi-image TIFF's for analysis in HALO software (Indica Labs, Corrales, N. Mex.).\nCellular analysis of the images were then analyzed with HALO image analysis software (Indica Labs, Cooales, N. Mex.). After the cells were visualized based on nuclear recognition (DAPI stain), the software measured fluorescence intensity of the estimated cytoplasmic areas of each cell. A mean intensity threshold above background was used to determine positivity for each fluorochrome within the cytoplasm, thereby, defining cells as either positive or negative for each marker. The positive cell data was then used to define colocalized populations and to perform nearest neighbor spatial analysis.\nFormalin-fixed paraffin-embedded melanoma samples were stained sequentially with a 6-component immunophenotyping antibody panel, including CD4, CD8, PD-1, PD-L1, macrophage cocktail (CD68+CD163), and FoxP3 (Tregs). DAPI was used as a nuclear counterstain. Antibodies were detected using HRP-catalyzed deposition of fluorescent tyramide substrates (Opal, Perkin-Elmer). Images were obtained using spectral imaging, autofluorescence subtraction and unmixing (Vectra 3.0, Perkin-Elmer), and analyzed using HALO™ image analysis software.\nas §1, with “Tumor samples obtained from melanoma patients were formalin-fixed and” for “Formalin-fixed”, “(FFPE) according to known procedures. FFPE” for “(FFPE)”, “OPAL Polymer HRP Mouse plus Rabbit (PerkinElmer, Hopkington, Mass.) was used for all secondary applications.” left out"}}, "data": [{"smiles": "NCCCCN(Cc1nc2ccccc2[nH]1)[C@H]1CCCc2cccnc21", "note": "[X4P-001]", "values": [{"measurement": "terminal half-life", "setting": "in vivo", "result": "approximately 14.5 hrs"}, {"measurement": "half-life", "setting": "in vivo; terminal half-life", "result": "12 to 24", "unit": "h"}, {"measurement": "anti-tumor activity", "setting": "[1]", "result": "significant anti-tumor activity, including decreased metastasis and increased overall survival"}, {"measurement": "CD8 Avg. Density", "setting": "melanoma tumor interface; Week 4, Day 1 380.0449", "result": 1550.5403, "unit": "cells/mm^2"}, {"measurement": "CD8 Within Interface Area", "setting": "melanoma tumor interface; Week 4, Day 1 5233", "result": 7557}, {"measurement": "CD8 Count", "setting": "melanoma tumor interface; Week 4, Day 1 8924", "result": 25894}, {"measurement": "total density of CD8+ cells within the boundary area compared with baseline", "setting": "melanoma tumor interface; after 3 weeks of monotherapy, within 100 μM of tumor boundary", "result": "increased four-fold"}, {"measurement": "percentage of CD4 positive cells in the TME", "setting": "[2]", "result": "increased"}, {"measurement": "percentage of CD8 positive cells in the TME", "setting": "[2]", "result": "increased"}, {"measurement": "percentage of PD-1 positive cells in the TME", "setting": "[2]", "result": "increased"}, {"measurement": "percentage of PDL-1 positive cells in the TME", "setting": "[2]", "result": "increased"}, {"measurement": "percentage of Treg (FoxP3+) cells", "setting": "[2]", "result": "not altered"}, {"measurement": "percentage of macrophages (CD68/CD163+)", "setting": "[2]; printed 24.1% vs. 25.4%, not altered", "result": 25.4, "unit": "%"}]}]}
